Source: article PMC11984924, “Dipeptidic Phosphonates: Potent Inhibitors of Pseudomonas aeruginosa Elastase B Showing Efficacy in a Murine Keratitis Model” (Advanced Science, 2025)

Assays:
MMP-3 = target: T1, MMP-3 (Homo sapiens, UniProt P08254); assay: MMP-3 inhibition (off-target); type: biochemical; settings: read-out: MMP-3 % inhibition at 100 µM
T1 construct: purchased AnaSpec (Fremont, CA, USA)
Experimental: 3.1 In vitro inhibition assays
LasB was expressed and purified as described previously.[3] In vitro inhibition assays (LasB, MMPs, TACE). All in vitro inhibition assays were performed as described previously.[10] TACE inhibitor screening kits were purchased from Sigma-Aldrich (Saint Louis, MO). MMPs along with the SensoLyte 520 Generic MMP Activity Kit Fluorimetric were purchased from AnaSpec (Fremont, CA, USA). The assays were performed according to the guidelines of the respective manufacturer. Fluorescence signals were measured using a CLARIOstar plate reader (BMG Labtech, Ortenberg, Germany). […]
3.8 Test against zinc metalloproteases MMP1–3 and TACE (ADAM17), and testing of
We selected a panel of human off -targets, including three human matrix metalloproteases (MMP-1, -2 and -3) and TACE (ADAM-17). These assays were performed as described previously.[3] The TACE inhibitor screening kit was purchased from Sigma -Aldrich (Saint Louis, MO). MMPs along with the SensoLyte 520 Generic MMP Activity Kit Fluorimetric were purchased from AnaSpec (Fremont, CA, USA). The assays were performed according to the guidelines of the respective manufacturer. Fluorescence signals were measured using a CLARIOstar plate reader (BMG Labtech, Ortenberg, Germany). […]
Table S6: Percent (%) inhibition of three MMPs (1 –3) and TACE (ADAM17) in presence of selected LasB inhibitors at 100 µM. Results are means and SD of at least two independent experiments. […]
Compound [% inhibition at [% inhibition at [% inhibition at [% inhibition at 100

HEK293 cells = assay: Cytotoxicity HEK293; type: cell-based; settings: Homo sapiens, HEK293, read-out: HEK293 % inhibition at 100 µM (metabolic activity), 48 hours
Experimental: HepG2 (human hepatocellular carcinoma), HEK293 (human embryonal kidney) and A549
(human lung carcinoma) cells (2x10^5 cells per well) were seeded in 24-well in flat-bottomed
plates. Culturing of cells, incubations and OD measurements were performed as described
previously with small modifications.[14] Twenty-four hours after seeding the cells the incubation
was started by the addition of compounds in a final DMSO concentration of 1%. The living cell
mass was determined after 48 hours in a PHERAstar microplate reader (BMG labtech,
Ortenberg, Germany). Two independent measurements were performed for each compound.

Plasma stability, mouse = type: in vitro ADME; settings: CD-1, read-out: Plasma t1/2 Mouse
Experimental: To determine stability in plasma, the compound (1 µM) was incubated with pooled CD -1 […]
mouse/human/Wistar rat or Göttingen minipig plasma (Neo Biotech, Nanterre, France).
Samples were taken by mixing aliquots with 4 volumes of acetonitrile containing internal […]
standard (125 nM diphenhydramine). The plasma stability of procain, propantheline and diltiazem were determined in parallel to confirm the enzymatic activity. Samples were stored […]
on ice until the end of the incubation and precipitated protein was removed by centrifugation […]
(15 min, 4 °C, 4,000 g, two centrifugation steps). Concentration of the remaining test compound at the different time points was analyzed by HPLC-MS/MS (TSQ Quantum Access MAX, […]
Thermo Fisher, Dreieich, Germany) and used to determine half-life (t1/2).
Table S2: Additional in vitro ADMET data for selected dipeptides. n.d.: not determined.
Kinetic Liver S9 Clint [µL/mg/min] Plasma t1/2 [min] LogD7.4 […]
pH 7.4 [µM] Mouse Human Mouse Human

[1] = Metabolic stability in human liver S9 fraction; type: in vitro ADME; settings: human liver S9, 1 µM
Experimental: page 57: 3. Biological evaluation 3.1 In vitro inhibition assays […] MMPs, TACE). […] inhibitor screening kits were purchased from Sigma-Aldrich (Saint Louis, MO). MMPs along with the SensoLyte 520 Generic MMP Activity Kit Fluorimetric were purchased from AnaSpec (Fremont, CA, USA). The assays were performed according to the guidelines of the respective manufacturer. Fluorescence signals were measured using a CLARIOstar plate reader (BMG Labtech, Ortenberg, Germany). 3.2 Kinetic solubility […] well were transferred into another 96-well plate and mixed with 148.5 µL of PBS. Plates were shaken for 5 min at 600 rpm at room temperature (r.t.), and the absorbance at 620 nm was measured. Absorbance values were normalized by blank subtraction and plotted using GraphPad Prism 8.4.2 (GraphPad Software, San Diego, CA, USA). Solubility (S) was […] 3.3 Lipophilicity determination LogD7.4 was analyzed using an HPLC−based method. The UV retention time of reference […] Linear […] Analysis was performed using a Vanquish Flex HPLC system with variable wavelength detector (Thermo Fisher, Dreieich, Germany) with the following conditions: EC150/2 NUCLEODUR C18 Pyramid column, 5 μM (Macherey Nagel, Düren, Germany); eluent A: 50 mM NH4OAc pH 7.4, eluent B: acetonitrile, and flow: 0.6 mL/min. […] 3.4 Metabolic stability in liver S9 fractions For the evaluation of combined phase I and phase II metabolic stability, the compound (1 μM) was incubated with 1 mg/mL pooled mouse liver S9 fraction (C57BL/6, Xenotech, Kansas Cit y, USA) or human liver S9 fraction (Corning, USA), 2 mM NADPH, 1 mM UDPGA, 10 mM MgCl2, 5 mM GSH and 0.1 mM PAPS at 37 °C for 120 min. The metabolic stability of testosterone, verapamil and ketoconazole were determined in parallel to confirm the enzymatic activity of S56 page 58: mouse S9 fractions, for human S9 testosterone, diclofenac and propranolol were used. The incubation was stopped after defined time points by precipitation of aliquots of S9 enzymes […] Samples were stored on ice until the end of the incubation and precipitated protein was removed by centrifugation (15 min, 4 °C, 4,000 g). Concentration of the remaining test compound at the different time points was analyzed by HPLC-MS/MS (TSQ Quantum Access MAX, Thermo Fisher, Dreieich, Germany) and used to determine half -life (t1/2) and intrinsic clearance (Clint). Species profiling was conducted as above using 0.5 mg/mL pooled mouse, rat or minipig liver microsomes (Xenotech, Kansas City, USA) with 2 mM NADPH and 10 mM MgCl2 and testosterone, verapamil and ketoconazole as reference compounds. 3.5 Plasma stability To determine stability in plasma, the compound (1 µM) was incubated with pooled CD -1 mouse/human/Wistar rat or Göttingen minipig plasma (Neo Biotech, Nanterre, France). Samples were taken by mixing aliquots with 4 volumes of acetonitrile containing internal standard (125 nM diphenhydramine). The plasma stability of procain, propantheline and diltiazem were determined in parallel to confirm the enzymatic activity. Samples were stored on ice until the end of the incubation and precipitated protein was removed by centrifugation (15 min, 4 °C, 4,000 g, two centrifugation steps). Concentration of the remaining test compound at the different time points was analyzed by HPLC-MS/MS (TSQ Quantum Access MAX, Thermo Fisher, Dreieich, Germany) and used to determine half-life (t1/2). Table S2: Additional in vitro ADMET data for selected dipeptides. n.d.: not determined. […] Compound Solubility PBS pH 7.4 [µM] Mouse Human Mouse Human […] S57

T1 sequence (P08254 100-477): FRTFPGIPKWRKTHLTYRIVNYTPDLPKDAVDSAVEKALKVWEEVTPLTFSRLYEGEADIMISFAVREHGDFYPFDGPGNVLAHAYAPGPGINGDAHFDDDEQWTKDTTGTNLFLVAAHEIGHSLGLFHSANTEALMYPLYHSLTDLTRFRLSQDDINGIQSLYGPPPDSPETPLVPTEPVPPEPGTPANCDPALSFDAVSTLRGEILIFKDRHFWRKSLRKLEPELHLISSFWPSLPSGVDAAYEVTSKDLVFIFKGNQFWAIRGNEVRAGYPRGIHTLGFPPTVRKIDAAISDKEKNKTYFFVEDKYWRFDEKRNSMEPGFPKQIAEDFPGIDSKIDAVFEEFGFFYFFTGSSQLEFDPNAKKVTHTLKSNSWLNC

| SMILES | inhibition at 100 µM (MMP-3) | inhibition at 100 µM (HEK293 cells) | half-life at 1 µM (Plasma stability, mouse) | microsomal CLint at 1 µM [1] |
| --- | --- | --- | --- | --- |
| CC(=O)c1ccc(NC(=O)[C@@H](NC(=O)[C@@H](CC(C)C)P(=O)(O)O)C(C)C)cc1 [(R)‐30] | < 10% | < 10% | > 2.5 h | < 5.8 µL/min/mg |
| CC(C)CC(C(=O)N[C@H](C(=O)Nc1ccc(Cl)c(Cl)c1)C1CCCCC1)P(=O)(O)O (stereo partly drawn) [compound 14] | < 10% | 51 ± 4% | > 2.5 h | < 5.8 µL/min/mg |
| CC(C)CC(C(=O)N[C@H](C(=O)Nc1ccc(Cl)c(Cl)c1)C(C)C)P(=O)(O)O (stereo partly drawn) [compound 9] | < 10% | < 10% | > 2.5 h | < 5.8 µL/min/mg |
| CC(C)C[C@H](C(=O)N[C@H](C(=O)Nc1ccc(-n2ccnc2)cc1)C(C)C)P(=O)(O)O [(R)‐36] | < 10% | 11 ± 9% | > 2.5 h | < 5.8 µL/min/mg |
| CC(=O)c1ccc(NC(=O)[C@@H](NC(=O)C(CC(C)C)P(=O)(O)O)C(C)C)cc1 (stereo partly drawn) [compound 30] | < 10% | < 10% | > 2.5 h | < 5.8 µL/min/mg |
| CC(C)CC(C(=O)N[C@H](C(=O)Nc1ccc(Cl)c(Cl)c1)C1CCC1)P(=O)(O)O (stereo partly drawn) [compound 13] | < 10% | < 10% | > 2.5 h | < 5.8 µL/min/mg |
